# Reference: patent US20240352070A1, “NOVEL CATHEPSIN INHIBITORS” (Ecole Polytechnique Federale de Lausanne (EPFL), priority 2021, published 2024)
# Numbered stars: 1 amine (or outer) side, 2 acyl side, 3 side chain; on linkers, the order of the positions; unused ones are H or OH. Square brackets hold non-standard residues; d marks the D form. Peptide text beside a SMILES is read from it. Trp(3a,7a-dihydro) = N[C@@H](CC1=CNC2C=CC=CC12)C(=O)O; Butenoyl(2E,4-amino) = O=C(/C=C/CN[*:1])[*:2]; Dap(N3) = [N-]=[N+]=NC[C@H](N)C(=O)O; Pra = C#CC[C@H](N)C(=O)O
# How the values were obtained:
# [1] = target: T1, CTSS wild-type (Homo sapiens, UniProt P25774); test: FRET assay to test CTSS activity (wild-type); type: biochemical
# T1 construct: made in house; host or cells: HEK293
# Excerpt: (§1) Cathepsins protein expression and purification. For CTSS purification, the human CTSS sequence depleted of the lysosomal localization signal (amino acids 17 to 331) was amplified from pLVX plasmids expressing WT or Y132D CTSS using the following primers: […]
# The PCR products were digested using Agel and Kpn1 restriction enzymes (NEB, cat #R3552S and #R3142S), then cloned in pHLsec plasmids carrying a secretion signal at the N-terminal of the MCS and a His-tag sequence at the C-terminal of the MCS. pHLsec-CTSS plasmids were transfected into HEK293 cells with PEI (polyethyleneimine) in presence of VPA (valproic acid). Proteins were purified from the supernatant using a 5 ml His-Trap FF column on an ÄKTA pure system (GE healthcare). Bound proteins were eluted using a 300 mM imidazole solution. Concentrated proteins were further purified by size exclusion chromatography on a HiLoad® 16/600 Superdex® 75 pg column (GE Healthcare) using PBS as mobile phase. Purified proteins were quantified by Nanodrop, diluted in a buffer containing 12.5 mM MES, 75 mM NaCl and 50% glycerol at ph 6.5 and stored at −20° C. […]
# FRET (Fluorescence Resonance Energy Transfer) assay to test CTSS activity. […] The peptide was added to the activated CTSS (50 ul/well) and fluorescent emission (MCA) was measured with SpectraMax iD3 (Molecular Devices) in kinetic mode for three hours (excitation: 330 nm, emission: 390 nm). […]
# [2] = target: T2, CTSS Y132D (Homo sapiens, UniProt P25774, Y132D); test: FRET assay with mutated CTSS Y132D; type: biochemical
# T2 construct: made in house; host or cells: HEK293
# Excerpt: as §1
# The PCR products were digested using Agel and Kpn1 restriction enzymes (NEB, cat #R3552S and #R3142S), then cloned in pHLsec plasmids carrying a secretion signal at the N-terminal of the MCS and a His-tag sequence at the C-terminal of the MCS. pHLsec-CTSS plasmids were transfected into HEK293 cells with PEI (polyethyleneimine) in presence of VPA (valproic acid). Proteins were purified from the supernatant using a 5 ml His-Trap FF column on an ÄKTA pure system (GE healthcare). Bound proteins were eluted using a 300 mM imidazole solution. Concentrated proteins were further purified by size exclusion chromatography on a HiLoad® 16/600 Superdex® 75 pg column (GE Healthcare) using PBS as mobile phase. Purified proteins were quantified by Nanodrop, diluted in a buffer containing 12.5 mM MES, 75 mM NaCl and 50% glycerol at ph 6.5 and stored at −20° C. Purified CTSB and CTSH were purchased from RndSystems.
# FRET (Fluorescence Resonance Energy Transfer) assay to test CTSS activity. For FRET experiments, CTSS-His was diluted to 10 μg/mL in assay buffer (50 mM NaOAc, 5 mM DTT, 250 mM NaCl), at pH 4.5 and incubated at 37° C. for 90 minutes to allow auto-activation. The protein was then diluted to 0.5 ng/ul in assay buffer and plated in 96-well plates (50 ul/well). […] The peptide was added to the activated CTSS (50 ul/well) and fluorescent emission (MCA) was measured with SpectraMax iD3 (Molecular Devices) in kinetic mode for three hours (excitation: 330 nm, emission: 390 nm).
# It was recently reported that 5.7% of lymphoma patients harbour a specific gain of function mutation changing the tyrosine 132 in aspartate (Y132D) or asparagine (Y132N). […] This was measured through a FRET assay in which the inhibitor was incubated with CTSS Y132D. […]
# [3] = target: T3, cathepsin B (CTSB) (Homo sapiens, UniProt P07858); test: Specificity assay: FRET assay for CTSB activity; type: biochemical
# T3 construct: purchased RndSystems
# Method: (§2) Specificity assay. […] First, we used specific conditions to activate the enzymes. CTSB was diluted in a specific activation buffer (MES 25 mM, DTT 5 mM, pH 5) at 10 ug/ml, incubated at 37° C. for 2 h and then diluted to 1 ug/ml in assay buffer (MES 25 mM, pH 5) for the FRET assay. CTSH was diluted in a different activation buffer (MES 50 mM, CaCl2) 10 mM, NaCl 150 mM, pH 6.5) at 200 ug/ml. In addition, as co-stimulatory activator we used thermolysin diluted at 100 ug/ml in activation buffer and then mixed with an equal volume of the diluted CTSH. The solution was incubated for 1 h at room temperature and then we added 2 mM Phosphoramidon diluted in assay buffer (MES 50 mM, pH 6.5) and we incubated the mix for 10 minutes at room temperature. Lastly, we added an equal volume of assay buffer containing 20 mM DTT and incubated the solution for 5 minutes at room temperature. For the FRET assay, we diluted both CTSH, and CTSB at 1 ug/ml in their specific assay buffer and incubated them with a specific substrate. We used as substrate KPPKPVSD in CTSB FRET assays and KLRMKLPKP in CTSH FRET assays and we tested two doses of our P3 inhibitor (20 uM and 50 uM). Fluorescence emission was measured with SpectraMax iD3 (Molecular Devices) in kinetic mode over three hours (excitation: 330 nm, emission: 390 nm).
# [4] = target: T4, CTSB in MCF-7 cells (Homo sapiens, UniProt P07858); test: Quenched activity-based probe (qABP) assay in MCF-7 cells; type: cell-based; settings: 16 hours, 500 ug/ml APeC, compared to PBS or antibody mixed to C10 without linker
# T4 construct: endogenous in cells; host or cells: MCF-7
# Method: FIG. 8. Output of quenched activity-based probe (qABP) assay. The presence of a dark band corresponds to the detection of a strong activity of CTSB. Absence of a band means complete CTSB inhibition. APeC=antibody-peptide conjugate. Ab=antibody.
# (§3) CD74 accumulation assay for efficacy assessment. To test the efficacy of our APeCs, 2×10^5 WSU-DLCL2 or Raji cells were incubated for two days with 300 or 500 ug/ml of APeC, in RPMI 1640 medium (ThermoFisher Scientific) supplemented with 10% FBS and 1% Penicillin-Streptomycin (ThermoFisher Scientific, cat. no. 15140122). After the first 24 h treatment, the cells were washed and resuspended in fresh APeC at the same treatment concentration. As negative controls, the same number of cells was either treated with PBS or with 300 ug/ml of the corresponding antibody previously incubated with C10 inhibitor in absence of DBCO-maleimide linker. Each treatment condition was tested in duplicates. […] Cells were then stained with anti-human CD74 antibody (BioLegend, cat. no. 357604) and fluorescence was measured by flow cytometry using BD LSRFortessa instrument (BD Biosciences). […] The gel was analysed by scanning in-gel fluorescence on a Typhoon Trio flat-bed laser scanner (GE Healthcare), and protein loading was confirmed by staining with Coomassie® Brilliant Blue R-250 (Schmidt GmbH). […]
# [5] = target: T5, cathepsin H (CTSH) (Homo sapiens, UniProt P09668); test: Specificity assay: FRET assay for CTSH activity; type: biochemical; settings: at 20 uM or 50 uM, 180 minutes
# T5 construct: purchased RndSystems
# Method: as §2
# [6] = target: T6, CTSS in primary human B-cells (Homo sapiens, UniProt P25774); test: qABP assay on primary human B-cells; type: cell-based; settings: 2 different donors
# T6 construct: endogenous in cells; host or cells: primary human B-cells (2 donors)
# Excerpt: FIG. 11. Output of quenched activity-based probe (qABP) assay on primary human B-cells. The presence of a dark band at a precise molecular weight indicates to the detection of a strong activity of the corresponding cathepsin. Absence of a band means complete cathepsin inhibition. APeC=antibody-peptide conjugate. ab=antibody.
# [7] = system: CTSS in WSU-DLCL2 cells; test: CD74 accumulation assay in WSU-DLCL2 cells; type: cell-based, human; settings: 48 hours, compared to PBS or antibody mixed to C10 in absence of linker
# Method: (§4) FIG. 7. A-B CD74 accumulation after 48 hours-long anti-CD22 APeC treatment in WSU cells (A) and Raji cells (B). C-D CD74 accumulation after 48 hours-long anti-CD79 APeC treatment in WSU cells (C) and Raji cells (D). Single-cell fluorescence was measured by flow cytometry. CTSS inhibitor Petesicatib was used as positive control.
# as §3, with “linker.” for “linker. Each treatment condition was tested in duplicates.”
# [8] = system: CTSS in Raji cells; test: CD74 accumulation assay in Raji cells; type: cell-based, human; settings: 48 hours, compared to PBS or antibody mixed to C10 in absence of linker
# Method: as §4
# as §3, with “linker.” for “linker. Each treatment condition was tested in duplicates.”
# [9] = system: WSU-DLCL2 cells; test: Internalization assay by flow cytometry; type: cell-based; settings: 100 ug/ml
# Method: FIG. 6. A-B Results of internalization assay performed by incubating WSU-DLCL2 cells with the Epr-AF488 antibody for 3 hours at 37° C. (A) or 4° C. (B). Single-cell fluorescence was measured by flow cytometry.
# Internalization assay. To test the internalization of the conjugated Epratuzumab antibody, 2×10^5 WSU-DLCL2 cells were incubated at 37° C. for 3 hours with 100 ug/ml of Epr-AF488 in PBS. As negative control, the same number of cells was incubated with 100 ug/ml of Epratuzumab previously incubated with AF488 dye in absence of DBCO-maleimide linker. Each experimental condition was tested in duplicates. Cells were then washed 3 times with PBS and 1 ul of anti-AF488 quencher antibody (ThermoFisher Scientific, A-11094) was added to half of the samples. Samples' fluorescence was measured by flow cytometry using Millipore Guava EasyCyte HT instrument (MilliporeSigma).
# [10] = at 20 uM and at 50 uM, FRET, 180 minutes
# T2 sequence (P25774 115-331 Y132D): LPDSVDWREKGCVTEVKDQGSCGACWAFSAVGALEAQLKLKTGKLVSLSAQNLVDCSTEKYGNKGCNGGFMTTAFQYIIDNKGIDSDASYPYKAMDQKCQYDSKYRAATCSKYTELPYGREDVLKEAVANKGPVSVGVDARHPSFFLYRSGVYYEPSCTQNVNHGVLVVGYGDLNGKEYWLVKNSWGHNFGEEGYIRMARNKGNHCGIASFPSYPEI
# T1 sequence (P25774 115-331): as the sequence (P25774 115-331 Y132D) above, with D18Y counted along it
# T5 sequence (P09668 116-335 limits assumed, other chains not shown): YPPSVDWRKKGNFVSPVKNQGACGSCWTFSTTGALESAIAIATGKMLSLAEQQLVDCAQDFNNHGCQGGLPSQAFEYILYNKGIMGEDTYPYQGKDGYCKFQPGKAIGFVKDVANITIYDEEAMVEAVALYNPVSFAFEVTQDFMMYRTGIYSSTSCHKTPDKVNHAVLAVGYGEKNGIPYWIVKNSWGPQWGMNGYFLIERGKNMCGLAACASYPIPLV
# T6 sequence (P25774 115-331): as the sequence (P25774 115-331 Y132D) above, with D18Y counted along it
compound,measurement,setting,value
"CSCC[C@H](NC(=O)[C@H](CCCNC(=N)N)NC(=O)[C@H](Cc1c[nH]cn1)NC(=O)[C@H](CCCCN)NC(=O)[C@H](CN=[N+]=[N-])NC(C)=O)C(=O)NC/C=C/C(=O)N[C@H](C(=O)N[C@@H](CCSC)C(=O)N[C@@H](Cc1c[nH]c2ccccc12)C(N)=O)C(C)C [C10, KHRM(Y)VMW] (Ac-[Dap(N3)]KHRM[Butenoyl(2E,4-amino)]VMW-NH2)",IC50,"[1]; FRET assay, dose-response, 50 minutes of incubation, wild-type CTSS",49.3 nM
same,inhibition at 0.5 µM,"[2]; at 500 nM, 50 minutes of incubation, read-out: reduction of CTSS Y132D activity (inhibition efficiency)",> 90%
same,reduction of CTSS Y132D activity,"[2]; tested at 50 nM, 50 minutes of incubation",more than 50%
"CSCC[C@H](NC(=O)[C@H](CC1=CNC2C=CC=CC12)NC(=O)/C=C/CNC(=O)[C@H](Cc1ccc(O)cc1)NC(=O)[C@H](CCCNC(=N)N)NC(=O)[C@H](CCCNC(=N)N)NC(=O)[C@H](CCCCN)NC(=O)[C@H](CN=[N+]=[N-])NC(C)=O)C(=O)N[C@@H](CC1=CNC2C=CC=CC12)C(N)=O (some centres unmarked) [D5, KRRY(Y)WMW] (Ac-[Dap(N3)]KRRY[Butenoyl(2E,4-amino)][Trp(3a,7a-dihydro)]M[Trp(3a,7a-dihydro)]-NH2)",IC50,"[3]; dose-response, 50 minutes of incubation",61.9 nM
CC(C)C[C@H](NC(=O)[C@H]1O[C@@H]1C(=O)O)C(=O)NCCCCN=C(N)N [E64],residual CTSB activity,[4],inhibited CTSB activity as expected
"C#CC[C@H](NC(C)=O)C(=O)N[C@@H](CCCCN)C(=O)N[C@@H](CC(C)C)C(=O)N[C@@H](CCCNC(=N)N)C(=O)N[C@@H](CCSC)C(=O)NC/C=C/C(=O)N1CCC[C@H]1C(=O)N[C@@H](CCCCN)C(=O)N[C@@H](CC(=O)O)C(N)=O [P3, KLRM(Y)PKD] (Ac-[Pra]KLRM[Butenoyl(2E,4-amino)]PKD-NH2)",inhibition of wild-type CTSS,[1]; [10],able to inhibit
same,inhibition of mutant form of CTSS (Y132D),[2]; [10],able to inhibit
same,inhibitory activity on CTSB,[3],some inhibitory activity
same,inhibition of CTSH,[5],not significantly inhibited
Cn1cc(-c2ccc(S(=O)(=O)[C@@H]3C[C@@H](C(=O)NC4(C#N)CC4)N(C(=O)C4(C(F)(F)F)CC4)C3)c(C(F)(F)F)c2)cn1 [Petesicatib],CTSS inhibition (qABP band),[6],comparable
same,CD74 accumulation,[7],lower than what we obtained with lower doses of our APeCs
same,CD74 accumulation,[8],lower than what we obtained with lower doses of our APeCs
Epr-AF488: Epratuzumab antibody conjugated with AlexaFluor-488 azide-dye instead of C10,internalization by lymphoma cells (inaccessible to quencher antibody),[9]; 3 hours at 37° C.,internalized
same,binding to lymphoma cells,"[9]; 3 hours, flow cytometry",still able to bind lymphoma cells
